Values quoted from earlier work, collected in patent publication US7390502B2, “SN-38 lipid complexes and their methods of use” (NeoPharm, Inc., priority 2000, dated 2008).

What was measured:
[1] = tends to precipitate into aqueous phase
[2] = aqueous solutions / water
[3] = versus irinotecan
[4] = test system: topoisomerase I purified from human and rodent tumor cell lines; conditions: versus irinotecan; enzyme purified from human and rodent tumor cell lines

SMILES: CCc1c2c(nc3ccc(O)cc13)-c1cc3c(c(=O)n1C2)COC(=O)[C@]3(O)CC [SN-38, 7-ethyl-10-hydroxycamptothecin]
- affinity for lipid membranes [1]: low affinity
- solubility in aqueous solutions [2]: exceedingly insoluble
- potency relative to irinotecan in in vitro cytotoxicity assays [3]: up to 2,000 fold
- potency relative to irinotecan as an inhibitor of topoisomerase I [4]: approximately 1000 times
